Tested on: IL-6 production induced by lipopolysaccharide (LPS) in human corneal epithelial cells
Assay: Evaluation test for GR agonist activity: inhibition of LPS-induced IL-6 production in human corneal epithelial cells (HCE-T)
Type: cell-based
Conditions: Corneal epithelial cell, 10 μL of 100 μM test compound solution per well, 4 hours incubation, efficacy relative to DEX
Description: In order to evaluate a GR agonist activity of the present compound, the inhibitory effects on the IL-6 production induced by lipopolysaccharide (LPS) in human corneal epithelial cells. IL-6 levels in the conditioned medium were measured using the HTRF human IL-6 Kit (boehringer-Ingelheim, Cat No. 62IL6PEB), and the procedure was carried out according to the protocol attached to the kit. Hereinafter, the specific method will be described.
LPS solution: After LPS was dissolved in phosphate buffer solution (hereinafter referred to as PBS(−)), the resulting solution was diluted with 10% FBS-DMEM/F12 medium, whereby a 1 μg/mL LPS solution was prepared.
After a test compound was dissolved in dimethylsulfoxide (hereinafter referred to as DMSO), the resulting solution was diluted with 10% FBS-DMEM/F12 medium, whereby a 100 μM test compound solution was prepared. A 100 μM DEX solution was prepared by the same method, and the inhibitory ratio of IL-6 production of DEX was evaluated to use for calculating efficacy (% DEX).
Used cell: SV40-immortalized human corneal epithelial cells (HCE-T) (RIKEN)
1) HCE-T cells were harvested, and seeded at 2.0×10^4 cells/0.1 mL/well in a 96-well plate.
2) After incubation overnight, the medium was removed and a 80 μL of new 10% FBS-DMEM/Ham's F12 medium was added into each well.
3) A 10 μL of test compounds solution was added into each well.
4) A 10 μL of LPS solution was added into each well.
5) As a negative control, a 10 μL of 10% FBS-DMEM/Ham's F12 medium was added into each well instead of a test compound solution and a LPS solution.
6) As a positive control, a 10 μL of 10% FBS-DMEM/Ham's F12 medium containing 1% DMSO was added into each well instead of a test compound solution.
7) After 4 hours incubation, supernatants were collected and IL-6 levels in the supernatants were quantitated using the HTRF human IL-6 Kit.
8) The inhibition ratio of IL-6 production (%) was calculated according to the following equation.
The inhibition ratio of IL-6 production (%) was calculated according to the following equation. The inhibition ratio of IL-6 production(%)=100×[1−(IL-6 level in each group−mean value of IL-6 level in negative control)/(mean value of IL-6 level in positive control−mean value of IL-6 level in negative control)](%)
Furthermore, the inhibition ratio of IL-6 production (efficacy (% DEX)) was also calculated according to the following equation. Efficacy(% DEX)=100×{(mean value of IL-6 inhibition in compound-treated group)/(mean value of IL-6 inhibition in DEX-treated group)}(%) (Result and Discussion)

`COc1ccccc1NCc1c(-c2ccc(OC(=O)c3ccccc3SC)cc2OC)ccc2c1C(C)=CC(C)(C)N2` [Compound 1-111] gave an Emax of 81%.
With `COc1cc(OC(=O)c2occc2C)ccc1-c1ccc2c(c1COc1cc(F)ccc1C)C(C)=CC(C)(C)N2` [Compound 1-57, 5-(5-Fluoro-2-methylphenoxymethyl)-6-[2-methoxy-4-(3-methylfuran-2-ylcarbonyloxy)phenyl]-2,2,4-trimethyl-1,2-dihydroquinoline] the Emax was 86%.
In the case of `CCCS(=O)(=O)Oc1ccc(-c2ccc3c(c2COC(=O)c2ccc(C)s2)C(C)=CC(C)(C)N3)c(OC)c1` [Compound 4-27, 6-(2-Methoxy-4-propylsulfonyloxyphenyl)-5-(5-methylthiophen-2-ylcarbonyloxymethyl)-2,2,4-trimethyl-1,2-dihydroquinoline], the Emax is reported as 101%.
For `COc1cc(OC(=O)c2ccco2)ccc1-c1ccc2c(c1COC(=O)c1ccc(Br)s1)C(C)=CC(C)(C)N2` [Compound 1-162, 5-(5-Bromothiophen-2-ylcarbonyloxymethyl)-6-[4-(furan-2-ylcarbonyloxy)-2-methoxyphenyl]-2,2,4-trimethyl-1,2-dihydroquinoline], the Emax was 81%.
`COc1cc(OC(=O)c2occc2C)ccc1-c1ccc2c(c1COC(=O)c1ccc(C)s1)C(C)=CC(C)(C)N2` [Compound 1-171, 6-[2-Methoxy-4-(3-methylfuran-2-ylcarbonyloxy)phenyl]-5-(5-methylthiophen-2-ylcarbonyloxymethyl)-2,2,4-trimethyl-1,2-dihydroquinoline] gave an Emax of 87%.
`COc1cc(OC(=O)c2ccccc2[N+](=O)[O-])ccc1-c1ccc2c(c1COC(=O)c1ccc(C)s1)C(C)=CC(C)(C)N2` [Compound 1-170, 6-[2-Methoxy-4-(2-nitrobenzoyloxy)phenyl]-5-(5-methylthiophen-2-ylcarbonyloxymethyl)-2,2,4-trimethyl-1,2-dihydroquinoline] showed an Emax of 77%.
`COC(=O)c1cccc(C(=O)Oc2ccc(-c3ccc4c(c3CNc3ccccc3OC)C(C)=CC(C)(C)N4)c(OC)c2)c1` [Compound 1-107, 6-[2-Methoxy-4-(3-methoxycarbonylbenzoyloxy)phenyl]-5-(2-methoxyphenylaminomethyl)-2,2,4-trimethyl-l,2-dihydroquinoline] was tested, and the Emax was 85%.
Molecule `COc1cc(OC(=O)Nc2ccc(Cl)cc2)ccc1-c1ccc2c(c1COC(=O)c1ccc(C)s1)C(C)=CC(C)(C)N2` [Compound 6-27, 6-[4-(4-Chlorophenylaminocarbonyloxy)-2-methoxyphenyl]-5-(5-methylthiophen-2-ylcarbonyloxymethyl)-2,2,4-trimethyl-1,2-dihydroquinoline] has an Emax of 94%.
Molecule `COc1cc(OC(=O)C(C)(C)C)ccc1-c1ccc2c(c1COc1cc(F)ccc1C)C(C)=CC(C)(C)N2` [Compound 1-58, 6-(4-t-Butylcarbonyloxy-2-methoxyphenyl)-5-(5-fluoro-2-methylphenoxymethyl)-2,2,4-trimethyl-1,2-dihydroquinoline] has an Emax of 76%.
`COc1cc(OC(=O)c2ccc(C)nc2)ccc1-c1ccc2c(c1COC(=O)c1ccc(C)s1)C(C)=CC(C)(C)N2` [Compound 1-128, 6-[2-Methoxy-4-(6-methylpyridin-3-ylcarbonyloxy)phenyl]-5-(5-methylthiophen-2-ylcarbonyloxymethyl)-2,2,4-trimethyl-1,2-dihydroquinoline] showed an Emax of 79%.
`COc1cc(OS(=O)(=O)C(C)C)ccc1-c1ccc2c(c1COC(=O)c1ccc(C)s1)C(C)=CC(C)(C)N2` [Compound 4-29, 6-(4-Isopropylsulfonyloxy-2-methoxyphenyl)-5-(5-methylthiophen-2-ylcarbonyloxymethyl)-2,2,4-trimethyl-1,2-dihydroquinoline] was tested, and the Emax was 92%.
`COc1cc(OC(=O)c2cscn2)ccc1-c1ccc2c(c1COc1cc(F)ccc1C)C(C)=CC(C)(C)N2` [Compound 1-40, 5-(5-Fluoro-2-methylphenoxymethyl)-6-[2-methoxy-4-(thiazol-4-ylcarbonyloxy)phenyl]-2,2,4-trimethyl-1,2-dihydroquinoline] showed an Emax of 75%.
`COc1cc(OC(=O)c2cscn2)ccc1-c1ccc2c(c1COC(=O)c1ccc(C)s1)C(C)=CC(C)(C)N2` [Compound 1-155, 6-[2-Methoxy-4-(thiazol-4-ylcarbonyloxy)phenyl]-5-(5-methylthiophen-2-ylcarbonyloxymethyl)-2,2,4-trimethyl-1,2-dihydroquinoline] showed an Emax of 83%.
`COc1cc(OC(=O)c2ccccc2F)ccc1-c1ccc2c(c1COc1cc(F)ccc1C)C(C)=CC(C)(C)N2` [Compound 1-45, 6-[4-(2-Fluorobenzoyloxy)-2-methoxyphenyl]-5-(5-fluoro-2-methylphenoxymethyl)-2,2,4-trimethyl-1,2-dihydroquinoline] showed an Emax of 77%.
`COc1cc(OC(=O)c2cccnc2OC)ccc1-c1ccc2c(c1COC(=O)c1ccc(C)s1)C(C)=CC(C)(C)N2` [Compound 1-166, 6-[2-Methoxy-4-(2-methoxypyridin-3-ylcarbonyloxy)phenyl]-5-(5-methylthiophen-2-ylcarbonyloxymethyl)-2,2,4-trimethyl-1,2-dihydroquinoline] gave an Emax of 91%.
`COc1cc(OC(=O)c2ccccc2Cl)ccc1-c1ccc2c(c1CNc1cc(F)ccc1C)C(C)=CC(C)(C)N2` [Compound 1-98, 6-[4-(2-Chlorobenzoyloxy)-2-methoxyphenyl]-5-(5-fluoro-2-methylphenylaminomethyl)-2,2,4-trimethyl-1,2-dihydroquinoline] showed an Emax of 78%.
Molecule `COc1cc(OC(=O)c2ccc(C)nc2)ccc1-c1ccc2c(c1COc1cc(F)ccc1C)C(C)=CC(C)(C)N2` [Compound 1-55, 5-(5-Fluoro-2-methylphenoxymethyl)-6-[2-methoxy-4-(6-methylpyridin-3-ylcarbonyloxy)phenyl]-2,2,4-trimethyl-1,2-dihydroquinoline] has an Emax of 76%.
Work on `COc1cc(OC(=O)N(C)C)ccc1-c1ccc2c(c1COC(=O)c1ccc(C)s1)C(C)=CC(C)(C)N2` [Compound 6-37, 6-(4-Dimethylaminocarbonyloxy-2-methoxyphenyl)-5-(5-methylthiophen-2-ylcarbonyloxymethyl)-2,2,4-trimethyl-1,2-dihydroquinoline] yielded an Emax of 85%.
`COc1cc(OC(=O)c2ccc(F)cc2)ccc1-c1ccc2c(c1COC(=O)c1ccc(C)s1)C(C)=CC(C)(C)N2` [Compound 1-169, 6-[4-(4-Fluorobenzoyloxy)-2-methoxyphenyl]-5-(5-methylthiophen-2-ylcarbonyloxymethyl)-2,2,4-trimethyl-1,2-dihydroquinoline] gave an Emax of 78%.
`COc1cc(OC(=O)c2cccnc2OC)ccc1-c1ccc2c(c1CNc1cc(F)ccc1C)C(C)=CC(C)(C)N2` [Compound 1-125, 5-(5-Fluoro-2-methylphenylaminomethyl)-6-[2-methoxy-4-(2-methoxypyridin-3-ylcarbonyloxy)phenyl]-2,2,4-trimethyl-1,2-dihydroquinoline] gave an Emax of 81%.
`COc1cc(OC(=O)c2ccc(C)o2)ccc1-c1ccc2c(c1COc1cc(F)ccc1C)C(C)=CC(C)(C)N2` [Compound 1-48, 5-(5-Fluoro-2-methylphenoxymethyl)-6-[2-methoxy-4-(5-methylfuran-2-ylcarbonyloxy)phenyl]-2,2,4-trimethyl-1,2-dihydroquinoline] was tested, and the Emax was 73%.
`COc1ccc([N+](=O)[O-])cc1OCc1c(-c2ccc(OC(=O)c3ccsc3)cc2OC)ccc2c1C(C)=CC(C)(C)N2` [Compound 1-81, 5-(2-Methoxy-5-nitrophenoxymethyl)-6-[2-methoxy-4-(thiophen-3-ylcarbonyloxy)phenyl]-2,2,4-trimethyl-1,2-dihydroquinoline] showed an Emax of 76%.

Reference: patent US8426406B2, “Glucocorticoid receptor agonist comprising 2,2,4-trimethyl-6-phenyl-1,2-dihydroquinoline derivatives having substituted oxy group” (Santen Pharmaceutical Co., Ltd., priority 2008, dated 2013)
